Source: patent publication US20070059242A1, “METHODS TO IDENTIFY THERAPEUTIC AGENTS” (priority 2005, published 2007)
Read-outs that look alike come from different tables or passages of the source.

Columns and labels:
[1] = tested on: Human aortic endothelial cells (HAEC); experiment: LDH release cytotoxicity assay, HAEC; type: cell-based; conditions: Endothelial cell, 18 h
Method: (§1) Cytotoxicity assays. WI-L2 human B-lymphocyte line, HAAE-1 human abdominal aortic endothelial line, MH-S murine alveolar macrophage line, and J774A.1 murine tissue macrophage line were obtained from the ATCC. Human aortic endothelial cells (HAEC) and human vascular smooth muscle cells (VSMS) were obtained from Cambrex Bio Science. Jurkat E6-1T-lymphocytes were kindly provided by Dr. J. Kaye (The Scripps Research Institute). Cells were cultured in ATCC-recommended media with 10% fetal calf serum. Cells were incubated in a controlled atmosphere at 37° C., with 5 or 7% CO2. For lactate dehydrogenase (LDH) release assays, adherent cells were harvested either by addition of 0.05% trypsin/EDTA or by scraping. The cells obtained were seeded onto 96-well microtiter plates (25,000 cells/well) and allowed to recover for 24-48 h. […] Cytotoxicity was then determined by measuring lactate dehydrogenase (LDH) release from cells in culture. […] 100% Cytotoxicity was defined as the maximum amount of LDH released by dead cells as shown by trypan blue exclusion, or the highest amount of LDH detected upon lysis of cells by 0.9% Triton X-100. The IC50 values were determined by comparison of the raw duplicate data for concentration versus cytotoxicity (%) to non-linear regression analysis (Hill plot) using Graphpad v3.0 software for Macintosh. […]

[2] = tested on: vascular smooth muscle cell line (VSMC); experiment: LDH release cytotoxicity assay, VSMC; type: cell-based; conditions: Homo sapiens, 18 h
Method: as §1

[3] = tested on: MH-S murine alveolar macrophage line; experiment: LDH release cytotoxicity assay, MH-S; type: cell-based; conditions: 18 h
Method: Cytotoxicity assays. WI-L2 human B-lymphocyte line, HAAE-1 human abdominal aortic endothelial line, MH-S murine alveolar macrophage line, and J774A.1 murine tissue macrophage line were obtained from the ATCC. Human aortic endothelial cells (HAEC) and human vascular smooth muscle cells (VSMS) were obtained from Cambrex Bio Science. Jurkat E6-1T-lymphocytes were kindly provided by Dr. J. Kaye (The Scripps Research Institute). Cells were cultured in ATCC-recommended media with 10% fetal calf serum. Cells were incubated in a controlled atmosphere at 37° C., with 5 or 7% CO2. For lactate dehydrogenase (LDH) release assays, adherent cells were harvested either by addition of 0.05% trypsin/EDTA or by scraping. The cells obtained were seeded onto 96-well microtiter plates (25,000 cells/well) and allowed to recover for 24-48 h. […] Cytotoxicity was then determined by measuring lactate dehydrogenase (LDH) release from cells in culture. […] 100% Cytotoxicity was defined as the maximum amount of LDH released by dead cells as shown by trypan blue exclusion, or the highest amount of LDH detected upon lysis of cells by 0.9% Triton X-100. The IC50 values were determined by comparison of the raw duplicate data for concentration versus cytotoxicity (%) to non-linear regression analysis (Hill plot) using Graphpad v3.0 software for Macintosh.

[4] = tested on: Class A scavenger receptor (SR-A); experiment: Scavenger receptor expression by flow cytometry, SR-A; type: cell-based, murine; conditions: for upregulation of SR-A: J774A.1, 25 μM with LDL (100 μg/ml protein), 6 h; for SR-A expression: cultured macrophages, in the absence of LDL
Method: (§2) Cell surface CD36 and SR-A were measured by flow cytometry using CD36 (BD Biosciences Pharmingen, San Diego, Calif.) and CD204 (Serotec, Oxford, UK) specific monoclonal antibodies. See Liao et al. (2000) Arterioscler. Thromb. Vasc. Biol. 20: 1968-75; Hu et al. (1996) Blood 87: 2020-28. Murine macrophage J774A.1 cells were serum-starved overnight in media with 0.5% BSA. Cells (1×10^6) treated with cholesterol ozonation products or cholesterol ozonation product complexed with LDL for specified times were then washed twice with PBS. After harvesting the cells by scraping, they were fixed with 6% paraformaldehyde for 20 min. Cells were then resuspended in PBS containing 2% heat-inactivated FCS, 0.05% NaN3 and appropriate primary antibody, antibody conjugate or isotype control (1:100 dilution) and incubated on ice for 30 min. Expression of either CD36 or SR-A was determined with CD36 (BD Biosciences Pharmingen, San Diego, Calif.) and CD204 (Serotec, Oxford, U.K.) specific monoclonal antibodies, respectively. After washing off the primary antibody, secondary antibodies were added, cells were washed again, then analyzed on a FACS calibur 2 (Becton Dickinson, Sparks, Md.) flow cytometer and analyzed by CellQuant software. Results were expressed as mean fluorescence intensity±standard error of the mean (SEM) of at least duplicate determinations. Significance was determined using a student two-tail t test, with (*) indicating p<0.05, and (**) indicating p<0.01 versus the control.

CD36 = experiment: Scavenger receptor expression by flow cytometry, CD36; type: cell-based, murine
Method: as §2

ICAM-1 = experiment: Endothelial adhesion molecule expression ELISA, ICAM-1; type: cell-based, human; conditions: for integrin (ICAM-1) expression: HAAE-1, not complexed with LDL
Method: Endothelial cell surface adhesion molecule expression was measured by ELISA, using anti-human CD54 (ICAM-1), CD106 (VCAM-1) and CD62E (E-Selectin) antibodies (Leinco Technologies, Inc., St. Louis, Mo.). The ELISA method was modified from previously described procedures.
Cells were then incubated with antibodies to VCAM-1, E-selectin, or ICAM-1 diluted 1:400 in PBS containing 5% FCS at 37° C. for 30 min. Wells were washed two times with PBS, then incubated with horseradish peroxidase (HRP)-conjugated goat anti-mouse IgG (Southern Biotechnology Associates, Birmingham, Ala., USA) in PBS/5% FCS at 37° C. for 30 min. The wells were washed four times with PBS, then incubated with H2O2/3,3′,5,5′-tetramethyl-benzidine peroxidase substrate (Pierce Chemical, Rockford, Ill., USA) for 30 min in the dark. The reaction was stopped by adding 25 μl of 8 N H2SO4, and the plates read on a microplate reader, blanking on wells stained with only secondary antibody. Each assay was performed in triplicate and the data are reported as the mean±SEM as a percentage of the expression level of the vehicle. To study the effect of cholesterol ozonation product 5a concentration (5-50 μM) on E-selectin expression, the assay was performed in an identical fashion as described above, with each point being the mean±SEM of at least duplicate measurements.

[5] = J774A.1, 25 μM complexed with LDL (100 μg/ml protein), 6 h
[6] = cultured macrophages, in the absence of LDL

Row | SMILES | IC50 [1] | IC50 [2] | IC50 ([3]; Mus musculus, Macrophage) | upregulation of SR-A [4] | SR-A expression [4] | CD36 expression (CD36; [5]) | CD36 expression (CD36; [6]) | integrin (ICAM-1) expression (ICAM-1) | IC50 ([1]; HAEC, LDH release, 0-100 μM, read-out: IC50) | IC50 ([2]; LDH release, 0-100 μM, read-out: IC50) | IC50 ([3]; MH-S, LDH release, 0-100 μM, read-out: IC50) | ICAM-1 levels (ICAM-1; HAAE-1, 25 μM in the presence of LDL, or lipoprotein alone)
1 | CC(C)CCC[C@@H](C)[C@H]1CCC2C3C(CC[C@@]21C)[C@@]1(C)CC[C@H](O)C[C@@]1(O)[C@@H]3C=O (stereo partly drawn) [5a, 3β-Hydroxy-5β-hydroxy-B-norcholestane-6β-carboxaldehyde] | 18.2 ± 1.9 µM | 29.8 ± 2.8 µM | 13.6 ± 1.1 µM | approximately 3 fold | did not increase expression | little or no effect | did not increase expression | no effects | – | – | – | –
2 | CC(C)CCC[C@@H](C)[C@H]1CCC2C(CC=O)C([C@@]3(C)CC[C@H](O)CC3=O)CC[C@@]21C (stereo partly drawn) [4a, 3β-Hydroxy-5-oxo-5,6-secocholestan-6-al] | – | – | – | approximately 3 fold | did not increase expression | little or no effect | did not increase expression | no effects | 24.6 ± 3.2 µM | 21.9 ± 2.2 µM | 11.2 ± 1.2 µM | remain unchanged
